We go through 13 molecules from patent US10030047B2 (Hoffmann-La Roche Inc., priority 2015, dated 2018).

The structures appear in SMILES notation. ≈ marks a conversion by molar mass, not a printed value.

This assay concerns A. baumannii strain ATCC19606. The assay is described as follows: Minimum inhibitory concentration (MIC) determination, microbroth dilution (CLSI). The format is cell-based. The settings on record: Acinetobacter baumannii; A. baumannii ATCC19606; CAMHB; read after 20 hours; >=80% growth inhibition; read-out: ATCC19606 MIC. As to the method:
The in vitro antimicrobial activity of the compounds was determined through microbroth minimum inhibitory concentration (MIC) methodology performed according to the Clinical and Laboratory Standard Institute guidelines (CLSI—M07-A9 Jan. 2012. Methods for Dilution Antimicrobial Susceptibility Tests for Bacteria That Grow Aerobically; Approved Standard—Ninth Edition, Clinical and Laboratory Standards Institute, Wayne/PA, US and the CLSI—M100-S24 Jan. 2014. Performance Standards for Antimicrobial Susceptibility Testing; Approved Standard—Fourth Informational Supplement, Clinical and Laboratory Standards Institute, Wayne/PA, US).
The compound stock solution was freshly prepared at 10× the required top concentration for the MIC determination, i.e. at 1280 mg/L, by reconstitution of the dry compound in 50:50 water:DMSO.
Polystyrene non-treated 96 wells microtiter plates were used for preparing panel containing compound serial twofold diluted at two times the final testing concentration (e.g. range from 64 to 0.06 μg/ml) in cation adjusted Mueller Hinton broth medium (CAMHB).
Inoculum was prepared by the “direct colony suspension method”. Colonies of A. baumannii ATCC19606 or clinical isolates were suspended in saline solution and adjusted to 0.5 McFarland, diluted 100 times in CAMHB broth and 50 μl added to each well (final concentration of cells ˜5×10^(5) CFU/ml and Final volume/well of 100 μl). Microtiter plates were sealed and incubated at 35±2° C.
MICs values were read after 20 hours of incubation and recorded as the lowest concentration of the antimicrobial that inhibits more or equal to 80% of growth of the organism as detected by the unaided eye and using a microtiter plate optical density reader (OD 600 nm).
Tables 2, 3, 4 and 5 provide the minimum inhibitory concentration (MIC) in microgram per milliliter of the compounds of present invention obtained against the A. baumannii strain ATCC19606 (Tables 2, 3, 4 and 5).
With `COc1ccc2c(c1)CNC(=O)[C@H](Cc1c[nH]c3ccccc13)N(C)C(=O)[C@H](CCCCN)NC(=O)[C@H](CCCN)NCc1cccnc1S2` [Example 61, (11S,14S,17S)-14-(4-Amino-butyl)-11-(3-amino-propyl)-17-(1H-indol-3-ylmethyl)-23-methoxy-16-methyl-2-thia-4,10,13,16,19-pentaaza-tricyclo[19.4.0.0*3,8*]pentacosa-1(25),3,5,7,21,23-hexaene-12,15,18-trione], the MIC came to 4 µg/mL (≈ 5.71 µM). The value for `CN1C(=O)[C@H](CCCCN)NC(=O)[C@H](CCCN)NCc2cccnc2Sc2c(Cl)cc(Cl)cc2CNC(=O)[C@@H]1Cc1c[nH]c2ccccc12` [Example 67, (11S,14S,17S)-14-(4-Amino-butyl)-11-(3-amino-propyl)-23,25-dichloro-17-(1H-indol-3-ylmethyl)-16-methyl-2-thia-4,10,13,16,19-pentaaza-tricyclo[19.4.0.0*3,8*]pentacosa-1(25),3,5,7,21,23-hexaene-12,15,18-trione] was 0.12 µg/mL (≈ 0.162 µM); that for `CN1C(=O)[C@H](CCCCN)NC(=O)[C@H](CCCN)NCc2cccnc2Sc2c(Cl)ccc(C(F)(F)F)c2CNC(=O)[C@@H]1Cc1c[nH]c2ccccc12` [Example 39, (11S,14S,17S)-14-(4-Amino-butyl)-11-(3-amino-propyl)-25-chloro-17-(1H-indol-3-ylmethyl)-16-methyl-22-trifluoromethyl-2-thia-4,10,13,16,19-pentaaza-tricyclo[19.4.0.0*3,8*]pentacosa-1(25),3,5,7,21,23-hexaene-12,15,18-trione] was 0.5 µg/mL (≈ 0.647 µM); that for `Cc1cc(-c2cc(Cl)c3c(c2)CNC(=O)[C@H](Cc2c[nH]c4ccccc24)N(C)C(=O)[C@H](CCCCN)NC(=O)[C@H](CCC(N)=O)NCc2cccnc2S3)ccn1` [Example 145, 3-[(11S,14S,17S)-14-(4-Amino-butyl)-25-chloro-17-(1H-indol-3-ylmethyl)-16-methyl-23-(2-methyl-pyridin-4-yl)-12,15,18-trioxo-2-thia-4,10,13,16,19-pentaaza-tricyclo[19.4.0.0*3,8*]pentacosa-1(25),3(8),4,6,21,23-hexaen-1l-yl]-propionamide] was 4 µg/mL (≈ 4.94 µM).

Consider `CN1C(=O)[C@H](CCCCN)NC(=O)[C@H](CCCN)NCc2ccccc2Sc2cc(C(F)(F)F)ccc2CNC(=O)[C@@H]1Cc1c[nH]c2ccccc12` [Example 13, (12S,15S,18S)-15-(4-Amino-butyl)-18-(3-amino-propyl)-12-(1H-indol-3-ylmethyl)-13-methyl-5-trifluoromethyl-2-thia-10,13,16,19-tetraaza-tricyclo[19.4.0.0*3,8*]pentacosa-1(21),3,5,7,22,24-hexaene-11,14,17-trione], for which the minimum inhibitory concentration (MIC) was determined as 2 µg/mL (≈ 2.71 µM). The value for `CN1C(=O)[C@H](CCCCN)NC(=O)[C@H](CCCN)NCc2ccccc2Sc2ccc(-c3ccccc3)cc2CNC(=O)[C@@H]1Cc1c[nH]c2ccccc12` [Example 69, (12S,15S,18S)-15-(4-Amino-butyl)-18-(3-amino-propyl)-12-(1H-indol-3-ylmethyl)-13-methyl-6-phenyl-2-thia-10,13,16,19-tetraaza-tricyclo[19.4.0.0*3,8*]pentacosa-1(25),3,5,7,21,23-hexaene-11,14,17-trione] was 4 µg/mL (≈ 5.36 µM); that for `Cc1cccc2c1Sc1ccccc1CN[C@@H](CCCN)C(=O)N[C@@H](CCCCN)C(=O)N(C)[C@@H](Cc1c(C)[nH]c3ccccc13)C(=O)NC2` [Example 58, (12S,15S,18S)-15-(4-Amino-butyl)-18-(3-amino-propyl)-4,13-dimethyl-12-(2-methyl-1H-indol-3-ylmethyl)-2-thia-10,13,16,19-tetraaza-tricyclo[19.4.0.0*3,8*]pentacosa-1(21),3,5,7,22,24-hexaene-11,14,17-trione] was 0.5 µg/mL (≈ 0.716 µM). Turning to `Cc1[nH]c2ccccc2c1C[C@H]1C(=O)NCc2cc(-c3cncc(S(C)(=O)=O)c3)cc(Cl)c2Sc2ncccc2CN[C@@H](CCCN)C(=O)N[C@@H](CCCCN)C(=O)N1C` [Example 199, (11S,14S,17S)-14-(4-Amino-butyl)-11-(3-amino-propyl)-25-chloro-23-(5-methanesulfonyl-pyridin-3-yl)-16-methyl-17-(2-methyl-1H-indol-3-ylmethyl)-2-thia-4,10,13,16,19-pentaaza-tricyclo[19.4.0.0*3,8*]pentacosa-1(25),3(8),4,6,21,23-hexaene-12,15,18-trione], the MIC stood at 1 µg/mL (≈ 1.14 µM). As to `COc1cc(-c2cc3c(cn2)Sc2ncccc2CN[C@@H](CCCN)C(=O)N[C@@H](CCCCN)C(=O)N(C)[C@@H](Cc2c[nH]c4ccccc24)C(=O)NC3)ccn1` [Example 205, (7S,10S,13S)-13-((1H-Indol-3-yl)methyl)-10-(4-aminobutyl)-7-(3-aminopropyl)-18-(2-methoxypyridin-4-yl)-12-methyl-6,7,9,10,12,13,15,16-octahydrodipyrido[2,3-b:4′,3′-p][1,5,8,11,14]thiatetraazacycloheptadecine-8,11,14(5H)-trione], the MIC was 16 µg/mL (≈ 20.5 µM).

`CN1C(=O)[C@H](CCCCN)NC(=O)[C@H](CCCN)NCc2ncccc2Sc2c(Cl)ccc(C(F)(F)F)c2CNC(=O)[C@@H]1Cc1c[nH]c2ccccc12` [Example 111, (11S,14S,17S)-14-(4-Amino-butyl)-11-(3-amino-propyl)-25-chloro-17-(1H-indol-3-ylmethyl)-16-methyl-22-trifluoromethyl-2-thia-7,10,13,16,19-pentaaza-tricyclo[19.4.0.0*3,8*]pentacosa-1(25),3(8),4,6,21,23-hexaene-12,15,18-trione]: the MIC turned out to be 1 µg/mL (≈ 1.29 µM). To `CN1C(=O)[C@H](CCCCN)NC(=O)[C@H](CCCN)NCc2cccnc2Sc2ccc(Cl)c(F)c2CNC(=O)[C@@H]1Cc1c[nH]c2ccccc12` [Example 52, (11S,14S,17S)-14-(4-Amino-butyl)-11-(3-amino-propyl)-23-chloro-22-fluoro-17-(1H-indol-3-ylmethyl)-16-methyl-2-thia-4,10,13,16,19-pentaaza-tricyclo[19.4.0.0*3,8*]pentacosa-1(25),3(8),4,6,21,23-hexaene-12,15,18-trione] belongs 0.5 µg/mL (≈ 0.691 µM); to `CN1C(=O)[C@H](CCCCN)NC(=O)[C@H](CCCN)NCc2cccnc2Sc2c(Cl)cc(N3CCC(N)C3)cc2CNC(=O)[C@@H]1Cc1c[nH]c2ccccc12` (stereo partly drawn) [Example 174, (11S,14S,17S)-14-(4-Amino-butyl)-11-(3-amino-propyl)-23-(3-amino-pyrrolidin-1-yl)-25-chloro-17-(1H-indol-3-ylmethyl)-16-methyl-2-thia-4,10,13,16,19-pentaaza-tricyclo[19.4.0.0*3,8*]pentacosa-1(25),3(8),4,6,21,23-hexaene-12,15,18-trione], 16 µg/mL (≈ 20.3 µM); to `CN1C(=O)[C@H](CCCCN)NC(=O)[C@H](CCC(N)=O)NCc2cccnc2Sc2c(Cl)cc(-c3ccccc3)cc2CNC(=O)[C@@H]1Cc1c[nH]c2ccccc12` [Example 184, 3-[(11S,14S,17S)-14-(4-Amino-butyl)-25-chloro-17-(1H-indol-3-ylmethyl)-16-methyl-12,15,18-trioxo-23-phenyl-2-thia-4,10,13,16,19-pentaaza-tricyclo[19.4.0.0*3,8*]pentacosa-1(25),3(8),4,6,21,23-hexaen-11-yl]-propionamide], 2 µg/mL (≈ 2.51 µM).

Usually MIC stands for the lowest concentration found to suppress growth.
